In PubChem BioAssay AID1918944 (Molecular Pharmacology Branch, DTP, NCI, 2023):

Test system: 786-0 complex spheroid viability
Assay: Anticancer human tumor 786-0 cell line growth inhibition;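 also: spheroids exposed to agents for seven days before readout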
Details: for IC50: curve of first compound; for viability, T/C: stronger effect = lower value
Procedure, shortened: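 Drug combinations with the LSD1 inhibitor iadademstat tested on tumor cells co-cultured as spheroids with endothelial cells and mesenchymal stem cells. Concentrations descended in half-log increments from clinical Cmax or 10 microM.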

[1] = second compound 0.1 µM, first compound 0.00949 µM
[2] = second compound 0.1 µM, first compound 0.03 µM
[3] = second compound 0.1 µM, first compound 0.0949 µM
[4] = second compound 0.1 µM, first compound 0.3 µM
[5] = second compound 0.1 µM, first compound 0.949 µM
[6] = second compound 0.1 µM, first compound 3 µM
[7] = second compound 0.316 µM, first compound 0.00949 µM
[8] = second compound 0.316 µM, first compound 0.03 µM
[9] = second compound 0.316 µM, first compound 0.0949 µM
[10] = second compound 0.316 µM, first compound 0.3 µM
[11] = second compound 0.316 µM, first compound 0.949 µM
[12] = second compound 0.316 µM, first compound 3 µM
[13] = second compound 1 µM, first compound 0.00949 µM
[14] = second compound 1 µM, first compound 0.03 µM
[15] = second compound 1 µM, first compound 0.0949 µM
[16] = second compound 1 µM, first compound 0.3 µM
[17] = second compound 1 µM, first compound 0.949 µM
[18] = second compound 1 µM, first compound 3 µM
[19] = second compound 3.16 µM, first compound 0.00949 µM
[20] = second compound 3.16 µM, first compound 0.03 µM
[21] = second compound 3.16 µM, first compound 0.0949 µM
[22] = second compound 3.16 µM, first compound 0.3 µM
[23] = second compound 3.16 µM, first compound 0.949 µM
[24] = second compound 3.16 µM, first compound 3 µM
[25] = second compound 10 µM, first compound 0.00949 µM
[26] = second compound 10 µM, first compound 0.03 µM
[27] = second compound 10 µM, first compound 0.0949 µM
[28] = second compound 10 µM, first compound 0.3 µM
[29] = second compound 10 µM, first compound 0.949 µM
[30] = second compound 10 µM, first compound 3 µM

`CCN(c1cc(-c2ccc(CN3CCOCC3)cc2)cc(C(=O)NCc2c(C)cc(C)[nH]c2=O)c1C)C1CCOCC1` + NC1CCC(NC2CC2c2ccccc2)CC1 was tested, and the IC50 (second compound 0.1 µM) was > 3 µM, the IC50 (second compound 0.316 µM) was > 3 µM and the IC50 (second compound 1 µM) was > 3 µM. For the same compound, the IC50 (second compound 3.16 µM) was > 3 µM, the IC50 (second compound 10 µM) was > 3 µM and the viability, T/C [1] was 121%. For the same compound, the viability, T/C [2] was 122%, the viability, T/C [3] was 117% and the viability, T/C [4] was 114%. It also gave a viability, T/C [5] of 114%, a viability, T/C [6] of 111% and a viability, T/C [7] of 119%. It also gave a viability, T/C [8] of 118%, a viability, T/C [9] of 114% and a viability, T/C [10] of 116%. It also gave a viability, T/C [11] of 109%, a viability, T/C [12] of 106% and a viability, T/C [13] of 116%. The viability, T/C [14] was 114%, the viability, T/C [15] was 115% and the viability, T/C [16] was 109%. For the same compound, the viability, T/C [17] was 105%, the viability, T/C [18] was 106% and the viability, T/C [19] was 111%. It also gave a viability, T/C [20] of 105%, a viability, T/C [21] of 109% and a viability, T/C [22] of 110%. It also gave a viability, T/C [23] of 97.2%, a viability, T/C [24] of 105% and a viability, T/C [25] of 87.2%. The viability, T/C [26] was 90.2%, the viability, T/C [27] was 91.2% and the viability, T/C [28] was 96.5%. For the same compound, the viability, T/C [29] was 88.3% and the viability, T/C [30] was 89%.
In the case of `CCN(c1cc(-c2ccc(CN3CCOCC3)cc2)cc(C(=O)NCc2c(C)cc(C)[nH]c2=O)c1C)C1CCOCC1` + NC1CC1c1ccc(-c2cccc(O)c2)cc1, the IC50 (second compound 0.1 µM) is reported as > 3 µM, the IC50 (second compound 0.316 µM) is reported as > 3 µM and the IC50 (second compound 1 µM) is reported as > 3 µM. The IC50 (second compound 3.16 µM) was > 3 µM, the IC50 (second compound 10 µM) was > 3 µM and the viability, T/C [1] was 99.5%. It also gave a viability, T/C [2] of 101%, a viability, T/C [3] of 98.7% and a viability, T/C [4] of 94.3%. It also gave a viability, T/C [5] of 95.7%, a viability, T/C [6] of 96.2% and a viability, T/C [7] of 104%. For the same compound, the viability, T/C [8] was 105%, the viability, T/C [9] was 107% and the viability, T/C [10] was 103%. It also gave a viability, T/C [11] of 97.6%, a viability, T/C [12] of 94.8% and a viability, T/C [13] of 98.8%. It also gave a viability, T/C [14] of 101%, a viability, T/C [15] of 99.3% and a viability, T/C [16] of 102%. The viability, T/C [17] was 84.8%, the viability, T/C [18] was 86% and the viability, T/C [19] was 88.6%. The viability, T/C [20] was 97.7%, the viability, T/C [21] was 95.3% and the viability, T/C [22] was 96.8%. For the same compound, the viability, T/C [23] was 84.4%, the viability, T/C [24] was 86.3% and the viability, T/C [25] was 87.8%. It also gave a viability, T/C [26] of 87%, a viability, T/C [27] of 85.5% and a viability, T/C [28] of 87.3%. The viability, T/C [29] was 80.4% and the viability, T/C [30] was 83%.
`O=C(c1cc(Cc2n[nH]c(=O)c3ccccc23)ccc1F)N1CCN(C(=O)C2CC2)CC1` + NC1CCC(NC2CC2c2ccccc2)CC1 was tested, and the IC50 (second compound 0.1 µM) was > 10 µM, the IC50 (second compound 0.316 µM) was > 10 µM and the IC50 (second compound 1 µM) was > 10 µM. For the same compound, the IC50 (second compound 3.16 µM) was > 10 µM, the IC50 (second compound 10 µM) was 8.15 µM and the viability, T/C (second compound 0.1 µM, first compound 0.0316 µM) was 114%. It also gave a viability, T/C (second compound 0.1 µM, first compound 0.1 µM) of 119%, a viability, T/C (second compound 0.1 µM, first compound 0.316 µM) of 111% and a viability, T/C (second compound 0.1 µM, first compound 1 µM) of 101%. For the same compound, the viability, T/C (second compound 0.1 µM, first compound 3.16 µM) was 83.1%, the viability, T/C (second compound 0.1 µM, first compound 10 µM) was 71.4% and the viability, T/C (second compound 0.316 µM, first compound 0.0316 µM) was 119%. For the same compound, the viability, T/C (second compound 0.316 µM, first compound 0.1 µM) was 112%, the viability, T/C (second compound 0.316 µM, first compound 0.316 µM) was 115% and the viability, T/C (second compound 0.316 µM, first compound 1 µM) was 104%. For the same compound, the viability, T/C (second compound 0.316 µM, first compound 3.16 µM) was 87.1%, the viability, T/C (second compound 0.316 µM, first compound 10 µM) was 72.6% and the viability, T/C (second compound 1 µM, first compound 0.0316 µM) was 115%. For the same compound, the viability, T/C (second compound 1 µM, first compound 0.1 µM) was 113%, the viability, T/C (second compound 1 µM, first compound 0.316 µM) was 104% and the viability, T/C (second compound 1 µM, first compound 1 µM) was 92.9%. The viability, T/C (second compound 1 µM, first compound 3.16 µM) was 76.6%, the viability, T/C (second compound 1 µM, first compound 10 µM) was 62.3% and the viability, T/C (second compound 3.16 µM, first compound 0.0316 µM) was 99.3%. For the same compound, the viability, T/C (second compound 3.16 µM, first compound 0.1 µM) was 99.3%, the viability, T/C (second compound 3.16 µM, first compound 0.316 µM) was 100% and the viability, T/C (second compound 3.16 µM, first compound 1 µM) was 91.8%. The viability, T/C (second compound 3.16 µM, first compound 3.16 µM) was 79.3%, the viability, T/C (second compound 3.16 µM, first compound 10 µM) was 57.3% and the viability, T/C (second compound 10 µM, first compound 0.0316 µM) was 79.8%. The viability, T/C (second compound 10 µM, first compound 0.1 µM) was 82.7%, the viability, T/C (second compound 10 µM, first compound 0.316 µM) was 88.4% and the viability, T/C (second compound 10 µM, first compound 1 µM) was 81.7%. The viability, T/C (second compound 10 µM, first compound 3.16 µM) was 67.2% and the viability, T/C (second compound 10 µM, first compound 10 µM) was 46.3%.
